The numbers were not newly measured in patent publication US20220305055A1, “PHARMACEUTICAL CO[…]” (Zincum, Inc., priority 2016, published 2022), which cites them from elsewhere.

This series has as its system diabetic rats. Conditions: zinc chloride administered.

As for `[Cl-].[Cl-].[Zn+2]` [zinc chloride], the hyperglycemia result is on record as “hyperglycemia improved”.
